Among the data in patent US11952365B2, “Anti-viral compounds” (Aligos Therapeutics, Inc., priority 2020, dated 2024) are IC50, CC50 and EC50 values, retold here.

Data set [1] concerns the target T1, human cathepsin L (Homo sapiens, UniProt P07711).
T1 construct: purchased R&D Systems
Description: cathepsin L assay. The settings on record: 10 pM human cathepsin L, Z-FR-AMC 2 μM, class symbols. It counts as biochemical. The method, boiled down:
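Human cathepsin L at 10 pM was preincubated 30 min with compound, then reaction started with Z-FR-AMC (2 μM final). Fluorescence (355/460 nm) read every 2 min for 30 min; IC50 from four-parameter curve fit.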

Data set [2] can be described thus: in vitro. The settings on record: human.
The test system of data set [3] is SARS-CoV-2-GHB-03021/2020. Description: microbe, parasite or virus in culture. It counts as cell-based. The settings on record: Severe acute respiratory syndrome coronavirus 2, Vero C1008, 96 h; read-out: VeroE6 + CP (EC50).
Data set [4] is described as follows: Cytotoxicity plates without OC43 virus (cell-titer-glo). It counts as cell-based, human. The note with it: human; HeLa cells without OC43 virus, class symbols. The method, boiled down: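 HeLa cells seeded overnight, then treated with serially diluted compounds in 2% FBS EMEM, uninfected, in parallel with the OC43 antiviral plates. Incubated 6 days at 33 °C; viability read by CellTiter-Glo luminescence.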

The target in data set [5] is 3CLpro (Severe acute respiratory syndrome coronavirus 2, UniProt P0DTD1). Description: SARS-CoV-2 3CLpro protease assay (duplex, SAMDI-MS). It counts as biochemical. The arrangement: For the duplex assay, 3CLpro and HRV3C was added. The settings on record: 3CLpro, 30 mins preincubation, class symbols; read-out: SARS-Cov-2 IC50.
A short description of data set [6]: in vitro. The note with it: African green monkey, VeroE6 + CP (CC50), Vero E6-eGFP cells with CP-100356, absence of virus, MTS.
Data set [7] relates to SARS-CoV-2-GHB-03021/2020. Description: SARS-CoV-2 Infection Model in Huh7 Cells. It is filed as cell-based. The note with it: Severe acute respiratory syndrome coronavirus 2, Huh-7, 96 h, SARS-CoV-2, day 4 p.i., MTS, class symbols.
Data set [8] relates to human beta-coronavirus OC43. Description: microbe, parasite or virus in culture. It counts as cell-based. The settings on record: Betacoronavirus 1, OC43, HeLa, 144 h.
Data set [9] addresses HRV3C (Human rhinovirus 14, UniProt P03303). Description: HRV3C protease assay (duplex, SAMDI-MS). It is filed as biochemical, HRV. The note with it: 30 mins preincubation. The method, boiled down: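 Steps: enzymes (HRV3C plus 3CLpro) and compound preincubated 30 min; two peptide substrates added; 30 min reaction at ambient temperature; formic acid quench; SAMDI capture and reflector-positive TOF analysis. Product quantified against internal standard peptides. IC50 by four-parameter equation.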

[10] abbreviates: OC43 in HeLa cells, 6 days at 33° C., class symbols, read-out: EC50.
Setting [11] is: HRV3C, class symbols, read-out: HRV IC50.
The mark [12] stands for this setting: HRV3C, bound, read-out: HRV IC50.

Where two headings read alike, the source gives them in different places. Some results are limits rather than exact numbers.

What is called IC50 is the midpoint of a concentration-inhibition curve. The term EC50 denotes the concentration that produces a half-maximal response.

As to `O=C(NCc1ccccc1)C(=O)C(C[C@@H]1CCNC1=O)NC(=O)[C@@H]1C[C@@H](C2CC2)CN1C(=O)c1cc2ccccc2[nH]1` (stereo partly drawn) [Compound 40, N-benzyl-3-{[(2S,4S)-4-cyclopropyl-1-(1H-indole-2-carbonyl)pyrrolidin-2-yl]formamido}-2-oxo-4-[(3S)-2-oxopyrrolidin-3-yl]butanamide], the IC50 lay in the range of 100 to 1000 nM in data set [1], 200 to 2000 nM in [5] and 200 to 2000 nM in data set [9] (setting [11]). For the same compound, the CC50 in data set [2] is more than 10000 nM; in [6] (numeric bounds), more than 100000 nM. In addition, the EC50 is 1000 to 10000 nM in data set [3], 1000 to 10000 nM in data set [7] and 100 to 1000 nM in [8] (setting [10]). The compound also displayed a CC50 at 6 days in data set [4] of more than 10000 nM.

For the compound `C=C[C@@H]1C[C@@H](C(=O)N[C@@H](C[C@@H]2CCNC2=O)C(=O)C(=O)NCc2ccccc2)N(C(=O)c2cc3ccccc3[nH]2)C1` [Compound 30], the figures for the IC50 in data set [1], in data set [5] and in data set [9] (setting [11]) were less than 100 nM, 20 to 200 nM and 200 to 2000 nM, respectively. Moreover, the CC50 in data set [2] and in data set [6] (numeric bounds) was more than 100000 nM throughout. The EC50 is 1000 to 10000 nM in data set [3], 1000 to 10000 nM in [7] and 100 to 1000 nM in data set [8] (setting [10]). In data set [4], this compound yielded a CC50 at 6 days of more than 10000 nM.

As to `COc1cccc2[nH]c(C(=O)N3C[C@@H]4CCC[C@@H]4[C@H]3C(=O)NC(CN3CCCC3=O)C(=O)C(=O)NC3CC3)cc12` (single isomer, unassigned) [Compound 113A, (1S,3aR,6aS)—N—((S*)-4-(cyclopropylamino)-3,4-dioxo-1-(2-oxopyrrolidin-1-yl)butan-2-yl)-2-(4-methoxy-1H-indole-2-carbonyl)octahydrocyclopenta[c]pyrrole-1-carboxamide], the figures for the IC50 in data set [1], in [5] and in data set [9] (setting [12]) were not below 10000 nM, 200 to 2000 nM and more than 10000 nM, respectively. Also, the CC50 in data set [2] and in data set [6] (numeric bounds) was more than 50000 nM in each case. Further, the EC50 in [3] fell in the range of 10000 to 100000 nM; in data set [7], 10000 to 100000 nM; in data set [8] (setting [10]) it was 1000 to 10000 nM. In addition, the CC50 at 6 days in [4] is more than 10000 nM.

With `COc1cccc2[nH]c(C(=O)N3C[C@@H]4CCC[C@@H]4[C@H]3C(=O)N[C@@H](CC3CC(C)(C)NC3=O)C(=O)CO)cc12` (relative stereo) [Compound 70_1, (1S,3aR,6aS)—N—((S)-1-((R*)-5,5-dimethyl-2-oxopyrrolidin-3-yl)-4-hydroxy-3-oxobutan-2-yl)-2-(4-methoxy-1H-indole-2-carbonyl)octahydrocyclopenta[c]pyrrole-1-carboxamide], the IC50 in data set [1] is not below 10000 nM; in data set [5], less than 20 nM; in [9] (setting [11]), 200 to 2000 nM. The CC50 in data set [2] and in data set [6] (class symbols) was more than 10000 nM throughout. The EC50 was less than 1000 nM in data set [3], 1000 to 10000 nM in data set [7] and 100 to 1000 nM in data set [8] (setting [10]). The CC50 at 6 days in data set [4] was more than 10000 nM.

For `O=C(NCc1ccccc1)C(=O)[C@H](C[C@@H]1CCNC1=O)NC(=O)[C@@H]1CC2(CCN1C(=O)c1cc3ccccc3[nH]1)CC2` [Compound 24], the IC50 lay within 100 to 1000 nM in data set [1], 20 to 200 nM in data set [5] and 20000 to 100000 nM in [9] (setting [11]). The CC50 in data set [2] was more than 10000 nM; in data set [6] (numeric bounds), more than 100000 nM. Further, the EC50 in data set [3] is 1000 to 10000 nM; in data set [7] it was 1000 to 10000 nM; in [8] (setting [10]) it was 100 to 1000 nM. For the same compound, the CC50 at 6 days in data set [4] was more than 10000 nM.

For the compound `COc1cccc2[nH]c(C(=O)N3C[C@@H]4CCCC[C@@H]4[C@H]3C(=O)N[C@@H](C[C@@H]3CCCNC3=O)C(=O)COCc3ccccc3)cc12` (single isomer, unassigned) [Compound 59A_1], the figures for the concentration for half-maximal inhibition (IC50) in data set [1], in [5] and in [9] (setting [11]) were not below 10000 nM, 20 to 200 nM and 2000 to 20000 nM, respectively. In addition, the CC50 in [2] and in data set [6] (class symbols) was more than 10000 nM in each case. Moreover, the concentration giving a half-maximal response (EC50) in data set [3] is less than 1000 nM; in data set [7], less than 1000 nM; in [8] (setting [10]) it was 100 to 1000 nM. The compound also showed a CC50 at 6 days in data set [4] of more than 10000 nM.

As to `COc1cccc2[nH]c(C(=O)N3C[C@]4(C[C@H]3C(=O)NC(C=O)C[C@@H]3CCCNC3=O)CC4(F)F)cc12` (stereo partly drawn) [Compound 29, (3S,6S)-1,1-difluoro-5-(4-methoxy-1H-indole-2-carbonyl)-N-(1-oxo-3-((S)-2-oxopiperidin-3-yl)propan-2-yl)-5-azaspiro[2.4]heptane-6-carboxamide], the IC50 in [1] lay within 100 to 1000 nM; in data set [5], 20 to 200 nM; in [9] (setting [11]), 20 to 200 nM. The CC50 in data set [2] and in [6] (numeric bounds) was more than 100000 nM throughout. The EC50 in [3], in data set [7] and in data set [8] (setting [10]) was 1000 to 10000 nM throughout. This compound also came in with a CC50 at 6 days in data set [4] of more than 10000 nM.

Turning to `COc1cccc2[nH]c(C(=O)N3C[C@@H]4CCC[C@@H]4[C@H]3C(=O)NC(C[C@@H]3CCCNC3=O)C(=O)C(=O)NC3CC3)cc12` (stereo partly drawn) [Compound 55, 3-{[(1S,3aR,6aS)-2-(4-methoxy-1H-indole-2-carbonyl)-hexahydro-1H-cyclopenta[c]pyrrol-1-yl]formamido}-N-cyclopropyl-2-oxo-4-[(3S)-2-oxopiperidin-3-yl]butanamide], the results for the IC50 in data set [1], in data set [5] and in data set [9] (setting [11]) were not below 10000 nM, less than 20 nM and 20 to 200 nM, respectively. Moreover, the CC50 in data set [2] and in data set [6] (numeric bounds) was more than 100000 nM in each case. Moreover, the EC50 was 1000 to 10000 nM in data set [3], 1000 to 10000 nM in data set [7] and 100 to 1000 nM in data set [8] (setting [10]). For the same compound, in data set [4], the CC50 at 6 days is more than 10000 nM.

Take `Cc1ccc2[nH]c(C(=O)N3CCC4(CC4)C[C@H]3C(=O)N[C@@H](C[C@@H]3CCNC3=O)C(=O)C(=O)NC3CC3)cc2c1` [Compound 146]: the figures for the IC50 in data set [1], in [5] and in [9] (setting [11]) were 1000 to 10000 nM, less than 20 nM and 2000 to 20000 nM, respectively. In addition, the CC50 in data set [2] is more than 10000 nM; in data set [6] (numeric bounds) it was more than 50000 nM. The EC50 in data set [3] lay in the range of 1000 to 10000 nM; in [7], 1000 to 10000 nM; in data set [8] (setting [10]) it was 100 to 1000 nM. Moreover, in data set [4], the CC50 at 6 days is more than 10000 nM.

Regarding `COc1cccc2[nH]c(C(=O)N3C[C@@H]4CCC[C@@H]4[C@H]3C(=O)N[C@@H](C[C@@H]3CCNC3=O)C(=O)CO)cc12` [Compound 27, (1S,3aR,6aS)—N-[(2S)-4-hydroxy-3-oxo-1-[(3S)-2-oxopyrrolidin-3-yl]butan-2-yl]-2-(4-methoxy-1H-indole-2-carbonyl)-hexahydro-1H-cyclopenta[c]pyrrole-1-carboxamide], the IC50 in [1] is not below 10000 nM; in [5], less than 20 nM; in data set [9] (setting [11]), 2000 to 20000 nM. Further, the CC50 in data set [2] and in [6] (numeric bounds) was more than 100000 nM in each case. Also, the EC50 in [3] was 1000 to 10000 nM; in data set [7], 1000 to 10000 nM; in [8] (setting [10]), 100 to 1000 nM. The CC50 at 6 days in data set [4] was more than 10000 nM.

Regarding `O=C(NC1CC1)C(=O)[C@H](C[C@@H]1CCNC1=O)NC(=O)[C@@H]1CC2(CCN1C(=O)c1cc3ccccc3[nH]1)CC2` [Compound 140, (S)—N—((S)-4-(cyclopropylamino)-3,4-dioxo-1-((S)-2-oxopyrrolidin-3-yl)butan-2-yl)-6-(1H-indole-2-carbonyl)-6-azaspiro[2.5] octane-5-carboxamide], the concentration for half-maximal inhibition (IC50) is not below 10000 nM in data set [1]; 20 to 200 nM in [5]; 2000 to 20000 nM in data set [9] (HRV IC50, HRV3C, class symbols). Also, the CC50 in [2] was more than 10000 nM; in [6] (numeric bounds), more than 50000 nM. Besides, the EC50 in [3] fell in the range of 1000 to 10000 nM; in [7] it was 1000 to 10000 nM; in data set [8], 100 to 1000 nM. In data set [4], the CC50 at 6 days is more than 10000 nM.

For `O=C1NCC[C@H]1C[C@H](NC(=O)[C@@H]1[C@H]2CCC[C@H]2CN1C(=O)c1cc2c(Cl)c(F)c(Cl)cc2[nH]1)C(=O)CO` [Compound 121, (1S,3aR,6aS)-2-(4,6-dichloro-5-fluoro-1H-indole-2-carbonyl)-N—((S)-4-hydroxy-3-oxo-1-((S)-2-oxopyrrolidin-3-yl)butan-2-yl)octahydrocyclopenta[c]pyrrole-1-carboxamide], the half-inhibitory concentration (IC50) in data set [1] is not below 10000 nM; in data set [5], 20 to 200 nM; in data set [9] (setting [12]), more than 10000 nM. Further, the CC50 in [2] and in [6] (numeric bounds) was more than 50000 nM each time. Also, the EC50 is 1000 to 10000 nM in data set [3], less than 1000 nM in data set [7] and less than 100 nM in [8] (setting [10]). Also, the CC50 at 6 days in data set [4] is more than 10000 nM.
